For 85 molecules, XC50 results are on record in ChEMBL document CHEMBL1157539, “Thousands of chemical starting points for antimalarial lead identification” (Nature, 2010).

This test has as its system Plasmodium falciparum. The test can be described thus: GSK_TCMDC: Inhibition of Plasmodium falciparum 3D7 in whole erythrocytes, using parasite LDH activity as an index of growth. It is filed as functional, organism-based. The settings on record: Plasmodium falciparum, 3D7.
With `Cc1cc(N/N=C/c2ccccc2[N+](=O)[O-])c2cccc(C)c2n1`, the XC50 was found to be 548 nM.

Regarding `CCN(CC)CCN(Cc1ccc(-c2ccc(C#N)cc2)cc1)C(=O)Cn1c(CCc2cccc(F)c2F)nc(=O)c2ccccc21`, the XC50 was 5.97 nM.

`Cc1c(CN2CCCCC2)cccc1OCCCNc1nc(NCCc2ccc(O)cc2)nc(N2CCNCC2)n1` displayed an XC50 of 223 nM.

Molecule `Cc1nnc2c(NC(=O)/C=C/c3ccc(OC(F)(F)F)cc3)cc3cc(Cl)ccc3n12` had an XC50 of 170 nM.

In turn, `CCOc1cc(C=Cc2nc(O)c3ccccc3n2)cc(Cl)c1O` displayed an XC50 of 1180 nM.

For the molecule `CCCc1cn2c3c(cc(C(=O)N[C@@H](Cc4ccccc4)[C@H](O)CNC4CCCCC4)cc13)N(CC)S(=O)(=O)CC2`, the XC50 worked out at 80.6 nM.

Turning to `COc1cc(NCCCNC(=O)c2ccc(Cl)c(Cl)c2)nc2ccccc12`, the XC50 was determined as 137 nM.

`Cc1[nH]c(C)c(-c2ccc(OCc3ccc(F)cc3)cc2)c(=O)c1Br`: the XC50 is 77.2 nM.

In turn, `CCCCC(=O)Nc1ccc(Nc2nc(C)cc(N3CCCC3)n2)cc1` showed an XC50 of 1060 nM.

In turn, `CC(=O)NC1=NC(C)(C)N(OCc2ccc(Cl)c(Cl)c2)C(NC(C)=O)=N1` registered an XC50 of 3.2 nM.

In the case of `COc1nc2c(CCN3CCC(NCc4ccc5c(c4)NCCO5)CC3)c(Cl)cnc2cc1F`, the XC50 turned out to be 179 nM.

In the case of `COc1cc(NC(=O)c2cc([N+](=O)[O-])ccc2NC(=O)CNC2CCCC(C)C2C)cc(OC)c1` (stereo not given), the XC50 came to 1040 nM.

For `O=C(NCCCCCN1CCC(c2c[nH]c3ccccc23)CC1)Nc1ccc(I)c(Cl)c1`, the XC50 turned out to be 969 nM.

For `Cc1ccccc1N1CCN(c2ccc(C(=O)NC(C)C)cn2)CC1`, the XC50 came to 901 nM.

The molecule `CN1CCN(CCCN(Cc2cccc(-c3cccc(CNCc4ccc5c(c4)OCO5)c3)c2)C(=O)CCC2CCCC2)CC1` registered an XC50 of 952 nM.

The molecule `O=C(Nc1ccc(Cl)c(C(F)(F)F)c1)c1ccc(Cl)c([N+](=O)[O-])c1` gave an XC50 of 1120 nM.

For `CCOC(=O)[C@H](Cc1cc([N+](=O)[O-])c(Oc2ccc(OC)c(Cc3ccc(OC)c(C(C)C)c3)c2)c([N+](=O)[O-])c1)NC(=O)C(F)(F)F`, the XC50 worked out at 984 nM.

The molecule `COc1ccc(CNCc2ccc(F)cc2)cc1-c1ccc(S(=O)(=O)NCCN2CCCC2)s1` had an XC50 of 706 nM.

`COc1cc2nc(NCCc3ccccc3)nc(NCCCc3ccccc3)c2cc1OC` gave an XC50 of 158 nM.

The molecule `CN(CC(=O)Nc1cc(C(F)(F)F)ccc1-n1cncn1)Cc1nc2ccccc2s1` gave an XC50 of 1410 nM.

Molecule `Cc1cccc2nc(-c3ccc(-c4ccc(CNCC5CCCO5)cc4)cc3)[nH]c12` (stereo not given) had an XC50 of 678 nM.

As for `CCCCNC(=O)[C@H](CC1CCCCC1)NC(=O)c1ccc(O)c(-c2ccc(OC)cc2)c1`, the XC50 came out at 920 nM.

For the molecule `CNCCNCc1cccc(-c2ccc(-c3nc4ccccc4[nH]3)cc2)c1`, the XC50 was determined as 743 nM.

Take `CC[C@H](NC(=O)c1c(CN2CCC(N3CCCCC3)CC2)c(-c2ccccc2)nc2c(Cl)c(O)ccc12)c1ccccc1`: the XC50 was found to be 734 nM.

Consider `Oc1cc(Nc2ccnc3cc(I)ccc23)ccc1F`, for which the XC50 worked out at 740 nM.

The molecule `CCOC(=O)c1ccc(NC(=O)Nc2ccc(-c3ccc(-c4nc5cc(C(F)(F)F)ccc5[nH]4)cc3)cc2)cc1` returned an XC50 of 273 nM.

`N#Cc1cccc(C(=O)NC2CCN(CCCCCNC(=O)/C=C/c3ccc(Cl)c(Cl)c3)CC2)c1` had an XC50 of 876 nM.

On to `Cc1cc(N)c2cc(NC(=O)CCC(=O)Nc3ccc4nc(C)cc(N)c4c3)ccc2n1`, for which the XC50 turned out to be 954 nM.

`COc1ccc(C(=O)NC(c2ccc(Cl)cc2Cl)c2cc(Cl)c3cccnc3c2O)cc1` (stereo not given) came in with an XC50 of 499 nM.

Regarding `CCCCCNC(=N)N/N=C/c1c[nH]c2ccc(OC)cc12`, the XC50 worked out at 955 nM.

Take `CCOc1ccccc1C1C(C(=O)C(C)(C)C)N2c3ccc(Br)cc3C=CC2C12C(=O)c1ccccc1C2=O` (stereo not given): the XC50 was 853 nM.

In turn, `CC(CN(C)C)C(=O)Nc1cccc(-c2ccc(-c3nc4ccccc4[nH]3)s2)c1` (stereo not given) yielded an XC50 of 743 nM.

In the case of `NCC1CCCN1Cc1ccc(-c2ccc(-c3nc4cc(F)ccc4[nH]3)cc2)cc1` (stereo not given), the XC50 was 926 nM.

Turning to `CCc1ccc(C(=O)Nc2cccc(CN3CCCN(Cc4ccc(O)cc4)CC3)c2)cc1`, the XC50 is 1030 nM.

`CC(=O)Nc1cccc(CNCc2ccc(-c3cnc(N4CCCC(c5ccccc5)C4)nc3)cc2)c1` (stereo not given) returned an XC50 of 1190 nM.

Molecule `O=C(c1cccc(-c2cccc(-c3nc4cc(C(F)(F)F)ccc4[nH]3)c2)c1)N1CCCCC1CN1CCC(O)C1` (stereo not given) came in with an XC50 of 279 nM.

Take `COc1ccc2nccc(C(=O)NC3CCC(CCN4CCc5cc(C#N)ccc5C4)CC3)c2c1` (stereo not given): the XC50 amounted to 1160 nM.

For the molecule `Cc1cc(OCCCN2CCC(NS(=O)(=O)c3cc(Br)c(Cl)s3)CC2)c2ccccc2n1`, the XC50 was determined as 851 nM.

With `CC(C)(CNC(=O)C1CCN(Cc2ccc(Cl)cc2)CC1)c1nc(-c2ccc(Cl)c(O)c2)c(-c2ccncc2)[nH]1`, the XC50 turned out to be 623 nM.

In turn, `COc1ccc2ncc(F)c(CCN3CCC(CNCc4cccc5c4OCO5)CC3)c2n1` gave an XC50 of 934 nM.

Molecule `CCc1ccc(CN2CCC(CNC(=O)c3cc(-c4cccc(Cl)c4)cs3)C2)cc1` (stereo not given) yielded an XC50 of 1110 nM.

`CCc1sc(-c2ccc(C(C)(C)C)cc2)nc1C(=O)NCCCN1CCCC1=O` registered an XC50 of 988 nM.

Take `Fc1cccc(COc2ccc(Nc3ncnc4sc(C#C[C@H]5CCCN5)cc34)cc2F)c1`: the XC50 is 871 nM.

The molecule `Cc1cccc2nc(-c3ccc(-c4ccc(NC(=O)C(C)CN(C)C)cc4)s3)[nH]c12` (stereo not given) had an XC50 of 409 nM.

The molecule `COc1cc2nc(NC3CCN(Cc4ccccc4)CC3)nc(N)c2cc1OC` yielded an XC50 of 166 nM.

In turn, `CN1CCC(c2csc3ccc(NC(=O)Nc4ccc(-c5ccncc5)c5ccccc45)cc23)CC1` had an XC50 of 1020 nM.

Regarding `Cc1cc(NCCCCCCCCNc2cc(C)nc3ccccc23)c2ccccc2n1`, the XC50 turned out to be 985 nM.

Take `O=S(=O)(Nc1ccc(CCN2CCC(N3CCCCC3)CC2)cc1)c1ccc2ccccc2c1`: the XC50 turned out to be 1010 nM.

`Cc1ccc(NC(=O)c2cc(S(=O)(=O)NC(C)(C)C)ccc2C)nc1` registered an XC50 of 756 nM.

On to `O=C(NCc1ccccn1)C(c1cc2ccccc2o1)N1CCN(C(c2ccccc2)c2ccccc2)CC1` (stereo not given), for which the XC50 came to 856 nM.

`Cc1ccnc(NC(c2cccc(OCc3ccccc3)c2)c2ccc3cccnc3c2O)c1` (stereo not given) returned an XC50 of 864 nM.

Take `COc1ccc2ncc(Cl)c(CCN3C[C@H](CNCc4ccc5c(n4)NC(=O)CS5)[C@H](O)C3)c2n1`: the XC50 stood at 1000 nM.

On to `O=C(Nc1ccc(F)cc1)N1CCCN(c2ccnc3cc(Cl)ccc23)CC1`, for which the XC50 came to 785 nM.

In turn, `C=C(C)Cn1cc(C2CCN(CCN3CCC(CNC(=O)c4ccc(-c5ccc(C#N)cc5)cc4)CC3)CC2)c2ccccc21` registered an XC50 of 433 nM.

For `O=C(Nc1ccc(F)cc1)NC1CCN(CCCCCNC(=O)C2CC2c2ccc(Cl)c(Cl)c2)CC1` (stereo not given), the XC50 turned out to be 987 nM.

`CCN1CCC(N2CCC(C(=O)Nc3cccc(-c4cccc(Cl)c4)c3)CC2)CC1` had an XC50 of 1080 nM.

Take `CC(Cc1ccc(C(=O)Nc2ccc(CC(C)NCCc3cccc(Cl)c3)cc2)cc1)NCCc1ccc(C(F)(F)F)cc1` (stereo not given): the XC50 worked out at 570 nM.

`O=S(=O)(c1ccc(OCc2ccc(Cl)cc2)cc1)c1cc2c(cc1O)CCN(C1CCC1)CC2` returned an XC50 of 942 nM.

Molecule `COc1cc2nc(Cl)nc(Nc3ccncc3)c2cc1OC` registered an XC50 of 1210 nM.

As for `c1ccc(-c2cc(NCCCCCCCCNc3cc(-c4ccccc4)nc4ccccc34)c3ccccc3n2)cc1`, the XC50 was 395 nM.

The molecule `COc1ccc(OC)c(NC(=O)CSc2nc(-c3ccccc3Cl)ns2)c1` yielded an XC50 of 835 nM.

`CCN(CC)CCCCNc1cc(-c2[nH]c(C(C)(C)C)nc2-c2ccc3cc(OC)ccc3c2)ccn1`: the XC50 was found to be 531 nM.

On to `CCOC(=O)c1c(CN2CCN(C)CC2)n(Cc2ccccc2)c2cc(Br)c(O)cc12`, for which the XC50 was determined as 595 nM.

In the case of `Cc1cccc2nc(-c3cccc(-c4cccc(C(=O)N5CCCCC5CN5CCC(O)C5)c4)c3)[nH]c12` (stereo not given), the XC50 is 463 nM.

`CC(C)NCc1cc(Nc2ccnc3cc(Cl)ccc23)ccc1O` came in with an XC50 of 25 nM.

On to `Cc1ccc(C)c2sc(N(CCCn3ccnc3)C(=O)c3ccco3)nc12`, for which the XC50 worked out at 874 nM.

For `O=C(NCCCCN1CCC(c2ccc3c(c2OCCCO)CCCC3)CC1)c1ccc(-c2ccc(C(F)(F)F)cc2)cc1`, the XC50 turned out to be 718 nM.

Take `CCCCCCOc1ccc(C(=O)N(Cc2ccccc2)c2c(-c3ccccc3)nc3cc(C)ccn23)cc1`: the XC50 was found to be 774 nM.

`O=C(CSc1nc2ccccc2c(=O)n1C1CC1)Nc1cc(C(F)(F)F)ccc1Cl` returned an XC50 of 108 nM.

In the case of `Cc1cc(N[C@@H](CC(C)C)C(=O)Nc2ccccc2)nc(NCc2ccccc2C)n1`, the XC50 is 777 nM.

On to `CCCc1cc(N2CCC(N3CCCC3)CC2)nc(Nc2ccc(Cl)cc2)n1`, for which the XC50 stood at 765 nM.

`COc1cc(C(=O)NC2CCN(Cc3ccccc3)CC2)ccc1-c1nc2cc(Cl)c(C)cc2[nH]1`: the XC50 turned out to be 304 nM.

`Cc1ccccc1C1CCN(C2CCC(NC(=O)/C=C/c3cc(C(F)(F)F)ccc3F)CC2)CC1` (stereo not given) showed an XC50 of 839 nM.

`COc1ccc(Nc2ccnc3cc4ccccc4cc23)cc1` came in with an XC50 of 683 nM.

With `CCOC(=O)C1=C(C)NC(C)=C(C(=O)OCC)C1(C(=O)OCc1ccccc1)c1cccc(C(F)(F)F)c1`, the XC50 came to 1230 nM.

Molecule `Cc1cc(N(C)C)nc(Nc2ccc(NC(=O)Nc3ccccc3)cc2)n1` displayed an XC50 of 134 nM.

`Cc1ccc2c(=O)n(C)c(=O)n(C)c2n1` showed an XC50 of 819 nM.

`Cc1ccc(S(=O)(=O)N2CCN(C(=O)c3cc(-c4cccs4)n[nH]3)CC2)c(C)c1` registered an XC50 of 866 nM.

`Cc1cccc2[nH]cc(C3CCN(CCC4CCN(C(=O)/C=C/c5ccc(Cl)c(Cl)c5)CC4)CC3)c12` returned an XC50 of 1220 nM.

Turning to `CCc1cc(COc2ccc(CNCCC(C)C)cc2I)c(OCc2ccccc2)c(COc2ccc(CNCCC(C)C)cc2I)c1`, the XC50 was found to be 1110 nM.

Turning to `CC1CCC(NC(=O)c2nn(-c3ccc(Cl)cc3)c(=O)c3ccccc23)CC1` (stereo not given), the XC50 is 1080 nM.

In the case of `CC[C@H]1CN2CCc3c([nH]c4ccccc34)[C@@H]2C[C@@H]1CC1c2cc(OC)c(OC)cc2CCN1C` (stereo not given in full), the XC50 amounted to 1090 nM.

`COc1cc(Nc2nccc(N3CCC(NC(=O)C(C)c4ccc(Cl)cc4)C3)n2)cc(OC)c1OC` (stereo not given): the XC50 was 757 nM.

In the case of `OCCNc1nc(Nc2ccc(Cl)cc2)nc2ccccc12`, the XC50 stood at 708 nM.

Molecule `O=C(/C=C/c1ccc(Cl)c(Cl)c1)NCCCCCN1CCC(NC(=S)Nc2ccc(Cl)cc2)CC1` came in with an XC50 of 443 nM.
